We go through nine compounds from paper PMC11415492 (Nature Communications, 2024).

In one data set the test system is male Fisher F-344 rats. The note with it: preclinical assays in rats; cited from earlier work.
In a further data set the test system is mice. The data set is described as follows: Open field test (locomotion, sedation). The note with it: groups not marked Female. Also on record: unit not given here. It counts as in vivo, mouse. Here is the method:
Mice were transferred to the testing room 30 min before the experiment to allow for acclimation. Body weight of each mouse was recorded. For experiments with antagonist, pre-treatment, the dosing and after application wait times were the same as for the tail-flick test. Mice were administered an ED50, ED80 or >ED95 doses of test compound (volume of injection 290–350 µL based on body weight). After injection, mice were returned to the home cage and allowed to rest for 30 min. Each mouse was then gently placed in the center of a clear Plexiglas arena (27.31 × 27.31 × 20.32 cm, Med Associates ENV-510) lit with dim light ( ~ 5 lux) and allowed to ambulate freely for 60 minutes. The locomotion of the mouse was tracked by infrared beams embedded along the X, Y, Z axes of the area and automatically recorded. Data was collected on Activity Monitor by Med Associates.
Statistical analysis was performed using the unpaired t-test, two-tailed with Welch’s correction to analyze total locomotion and a two-way ANOVA with Šidák’s multiple comparison test for post hoc comparison to analyze locomotion across time bins.

Another data set has as its target T1, hSERT (Homo sapiens, UniProt P31645).
T1 construct: expressed in transfected cells
Briefly: hSERT inhibition assay (APP+ fluorescence uptake). It counts as cell-based. Here is the method:
Stably transfected hSERT-HEK cellular cultures were maintained in Dulbecco’s Minimal Essential Medium (DMEM) with GlutaMAX (Gibco-Thermo Fisher Scientific, Waltham, MA) with the following additions: 10% (v/v) Fetal Bovine Serum (FBS, Atlanta Biologicals, Flowery Branch, GA), 100 U/mL Penicillin 10 μg/mL Streptomycin (Gibco-Thermo Fisher Scientific, Waltham, MA), and 500 μg/mL Geneticin (G418) (Sigma Aldrich, St. Louis, MO). Singly transfected cells were seeded at a density of 0.09 × 10^6 cells/well in poly-D-Lysine (Sigma Aldrich, St. Louis, MO) coated white solid-bottom 96-well plates (Greiner Bio-One, Kremsmünster, Austria). Cells were grown for 44 h in aqueous media at 37 °C under 5% CO2 atmosphere. […] A final solution of 120 μL of PBS was finally added to all corresponding wells for cell maintenance before measuring fluorescence uptake (BioTek H1MF plate reader (BioTek Instruments, Winooski, VT), APP+ excitation and emission wavelengths 436 and 500 nm). Recorded inhibitor values were first subtracted from vehicular values to quantify the respective fluorescence uptake. Data were analyzed using the dose-response-inhibitor nonlinear curve fitting model (log[inhibitor] vs response (four parameters) in Graphpad Prism 10 (Graphpad Software, La Jolla, CA).

A further data set relates to monkeys. The note with it: daily dosing prior to SA sessions (14 days); cited from earlier work.
Data set [1] has as its target T2, hKOR (Homo sapiens, UniProt P41145).
T2 construct: expressed in transfected cells; host or cells: HEK-293T, transient (PEI)
The data set is described as follows: KOR [35S]GTPγS agonist assay (commercial). It counts as biochemical. As to conditions: Log [Drug]. For orientation: GTPγS is a poorly hydrolysed GTP analogue; its binding reports G protein activation.

A further data set deals with male rats. The note with it: cited from earlier work.
In the next data set the test system is GDNF. The data set is described as follows: GDNF expression studies (ELISA, brain regions). It counts as in vivo, rat. As to conditions: aticaprant 1 mg/kg s.c. before oxa-noribogaine 40 mg/kg i.p. Here is the method:
One day or five days after drug administration, rats from these groups as well as non-treated controls were decapitated, brains removed and placed in a stainless-steel rat brain matrix. Coronal slices were taken and the ventral tegmental area (VTA), nucleus accumbens (NAc) and medial prefrontal cortex (mPFC) were dissected and immediately frozen on dry ice. Total protein was isolated from pulverized tissue (8–15 mg tissue per region was harvested from one subject) from these regions. GDNF contents were assayed using the BiosSensis GDNF, Rat, Rapid™ ELISA assay (Biosensis Pty Ltd, SA, Australia). Protease (Thermo Scientific, Rockford, IL), and phosphatase inhibitors (Cocktails 1 and 2, Sigma-Aldrich, St. Louis, MO) were added to the extraction buffers. Regardless of sample weight 230uL of RIPA buffer (Sigma; R0278) was added into each sample along with protease inhibitors. […] Protein concentrations were measured using the bicinchoninic acid protein assay kit (Pierce, Rockford, IL, USA) on a spectrophotometer (iD5, Molecular Devices, Sunnyvale, CA). […] In a separate cohort, we assessed the ability of the kappa antagonist aticaprant to attenuate the oxa-noribogaine induced increase in GDNF in the VTA and mPFC five days after administration. […] Data were analyzed by protein and region using one way ANOVA with Tukey’s multiple comparison test for post hoc comparison.
On the technique in general: In an ELISA, binding on a coated surface is turned into a signal by an enzyme label.

The target of data set [2] is T2, hKOR. The data set is described as follows: G protein activation BRET assay. It counts as cell-based. The note with it: for EC50: HEK-293T, (95% CI); for % effect at 100 µM: n = 4.

“And” between values parts separate entries of the source, which are not always exact repeats. Identical values can stand only once. “Also recorded” adds a separate entry of the source. Counter-ions that a name gives are not always drawn.

T2 sequence (P41145 whole entry): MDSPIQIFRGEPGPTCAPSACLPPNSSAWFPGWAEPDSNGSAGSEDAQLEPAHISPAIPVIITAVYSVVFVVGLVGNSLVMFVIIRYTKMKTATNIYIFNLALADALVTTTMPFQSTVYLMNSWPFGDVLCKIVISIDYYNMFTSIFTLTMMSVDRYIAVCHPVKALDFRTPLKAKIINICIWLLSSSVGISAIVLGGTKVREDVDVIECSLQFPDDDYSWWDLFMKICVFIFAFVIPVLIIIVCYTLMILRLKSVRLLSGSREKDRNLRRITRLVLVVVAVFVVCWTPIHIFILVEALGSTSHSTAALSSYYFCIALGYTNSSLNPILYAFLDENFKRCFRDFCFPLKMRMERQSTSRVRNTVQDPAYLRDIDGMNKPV
T1 sequence (P31645 whole entry): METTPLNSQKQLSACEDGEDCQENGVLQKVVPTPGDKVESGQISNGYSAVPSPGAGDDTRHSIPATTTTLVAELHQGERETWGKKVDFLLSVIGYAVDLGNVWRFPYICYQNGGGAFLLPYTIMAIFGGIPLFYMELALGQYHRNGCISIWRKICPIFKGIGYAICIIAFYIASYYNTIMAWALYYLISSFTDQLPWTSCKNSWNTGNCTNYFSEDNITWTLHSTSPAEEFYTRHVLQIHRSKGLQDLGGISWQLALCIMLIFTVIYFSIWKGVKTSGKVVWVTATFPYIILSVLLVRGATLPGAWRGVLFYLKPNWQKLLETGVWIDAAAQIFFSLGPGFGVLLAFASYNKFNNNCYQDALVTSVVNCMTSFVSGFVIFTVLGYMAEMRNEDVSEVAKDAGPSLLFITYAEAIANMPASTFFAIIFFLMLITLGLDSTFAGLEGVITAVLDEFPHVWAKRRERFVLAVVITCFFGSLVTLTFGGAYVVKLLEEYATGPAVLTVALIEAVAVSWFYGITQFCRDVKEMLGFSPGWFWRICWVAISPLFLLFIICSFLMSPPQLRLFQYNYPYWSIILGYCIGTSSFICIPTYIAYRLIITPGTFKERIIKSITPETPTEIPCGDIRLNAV

Regarding `COCC[C@H]1CC2CN3CCc4c([nH]c5ccccc45)[C@](C(=O)OC)(C2)[C@H]13` [18MC, 18-methoxycoronaridine], in the data set on male Fisher F-344 rats, the “effect on morphine intake” value was “efficacy and duration of effect on morphine intake comparable to ibogaine and noribogaine”.

`Cc1cc(C)cc([C@@H]2CCCN2Cc2ccc(Oc3ccc(C(N)=O)cc3F)cc2)c1` [Aticaprant (ATI)]: the “Open field total locomotion, individual animals (Fig. 3h source data)” value with mice was 98.5549 and 70.7237 and 76.3275 and 70.7309 and 115.865 and 89.5078 and 98.6683 and 78.3135. What is called Emax is the maximal effect, on the per cent scale that the assay sets. At hSERT, `CN(C)CCCN1c2ccccc2CCc2ccccc21` [Imipramine, imipramine hydrochloride] came in with an Emax of 100%. For the compound `C[C@H]1CNCCc2ccc(Cl)cc21` [Lorcaserin, lorcaserin], in the data set on monkeys, the “suppression of cocaine SA” value is listed as “the suppression effect completely dissipated as soon as the treatment ended”. Take `CC[C@H]1C[C@H]2C[C@H]3c4[nH]c5ccc(O)cc5c4CCN(C2)[C@@H]13` [NORIBO]: the “response, Fig. S5a concentration-response point” value at hKOR [1] (M = -4) was found to be 66; on hKOR [1] (M = -4.5), 55; at hKOR [1] (M = -5), 39; on hKOR [1] (M = -5.5), 20; at hKOR [1] (M = -6) it was 7; at hKOR [1] (M = -6.5), 2. On to `COc1ccc2c3c([nH]c2c1)CCN(C)CC3` [TBG], for which the “effect on heroin SA” value in the data set on male rats was “no lasting effect on heroin SA”. On to `Cc1cc(C)cc([C@@H]2CCCN2Cc2ccc(Oc3ccc(C(N)=O)cc3F)cc2)c1` [aticaprant], for which the “effect of pre-treatment on oxa-noribogaine-induced GDNF increase” value in the data set on GDNF is “the induction of GDNF was blocked in both mPFC and VTA; also recorded: prevents the increase of GDNF expression in mPFC and VTA”.

The EC50 is the concentration that produces a half-maximal response. Take Epi-oxa-ibogamine: at hKOR [2], the half-maximal effective concentration (EC50) was > 10 µM and the “% effect at 100 µM” value is given as 46%. For Oxa-ibogamine the same measures were > 10 µM and 56%.
